{"source": "ChEMBL document CHEMBL5331104", "about": "“Discovery of BRD4-HDAC Dual Inhibitors with Improved Fungal Selectivity and Potent Synergistic Antifungal Activity against Fluconazole-Resistant Candida albicans” (J Med Chem, 2023)", "key": {"[1]": {"system": "Candida albicans", "assay": "microbe, parasite or virus in culture", "assay_type": "functional", "details": "0304103", "description": "Antifungal activity against Candida albicans 0304103 assessed as microbial growth inhibition"}, "[2]": {"system": "Candida albicans", "assay": "Antifungal activity against Candida albicans SC5314 assessed as fungal growth inhibition incubated for 24 hrs by broth dilution method", "assay_type": "functional"}, "[3]": {"system": "HEL", "assay": "Antiproliferative activity against human HEL cells incubated for 48 hrs by CCK8 assay", "assay_type": "functional, cell-based"}, "[4]": {"system": "K562", "assay": "Antiproliferative activity against human K562 cells incubated for 48 hrs by CCK8 assay", "assay_type": "functional, cell-based", "details": "K562, 48 h"}, "[5]": {"assay": "in vitro", "details": "human, HUVEC cells", "description": "Cytotoxicity against HUVECs assessed as inhibition of cell growth incubated for 48 hrs by CCK8 assay"}, "[6]": {"biological_target": "Histone deacetylase", "assay": "Inhibition of total HDAC in human HUVEC cells using Boc-Lys(Ac)-AMC as substrate preincubated for 12 hrs followed by substrate addition measured after 6 hrs by microtiter plate reader analysis", "assay_type": "cell-based"}, "[7]": {"system": "Candida albicans", "assay": "microbe, parasite or virus in culture", "assay_type": "functional", "details": "0304103, time 24 hrs", "description": "Synergetic antifungal activity against Candida albicans 0304103 assessed as microbial growth inhibition incubated for 24 hrs in the presence of fluconazole by checkerboard microdilution method"}, "[8]": {"system": "Candida albicans", "assay_type": "functional, 0304103", "details": "time 24 hrs", "description": "Synergetic antifungal activity against Candida albicans 0304103 assessed as fractional inhibitory concentration index incubated for 24 hrs in the presence of fluconazole by checkerboard microdilution method"}, "[9]": {"system": "Cryptococcus neoformans", "assay": "Antifungal activity against Cryptococcus neoformans H99 assessed as fungal growth inhibition incubated for 24 hrs by broth dilution method", "assay_type": "functional"}, "[10]": {"system": "HL-60", "assay": "Antiproliferative activity against human HL-60 cells incubated for 48 hrs by CCK8 assay", "assay_type": "functional, cell-based", "details": "HL-60, 48 h"}, "[11]": {"biological_target": "Histone deacetylase 1 (Homo sapiens, UniProt Q13547)", "sequence (Q13547 whole entry, the tested form may be a part)": "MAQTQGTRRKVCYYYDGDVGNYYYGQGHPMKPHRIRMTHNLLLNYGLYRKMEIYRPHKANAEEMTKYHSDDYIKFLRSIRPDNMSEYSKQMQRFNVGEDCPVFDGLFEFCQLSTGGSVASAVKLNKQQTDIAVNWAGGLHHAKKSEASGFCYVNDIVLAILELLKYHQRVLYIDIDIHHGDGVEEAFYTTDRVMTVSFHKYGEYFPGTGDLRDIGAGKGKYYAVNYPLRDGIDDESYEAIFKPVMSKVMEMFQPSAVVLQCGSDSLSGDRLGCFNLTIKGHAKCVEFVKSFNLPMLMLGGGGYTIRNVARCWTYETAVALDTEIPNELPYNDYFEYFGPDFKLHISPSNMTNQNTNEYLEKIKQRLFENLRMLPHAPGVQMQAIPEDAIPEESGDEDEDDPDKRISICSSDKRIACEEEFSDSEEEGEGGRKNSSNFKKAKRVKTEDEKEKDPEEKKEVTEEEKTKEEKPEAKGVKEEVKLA", "assay": "Inhibition of full-length recombinant human HDAC1 (1 to 482 residues) expressed in baculovirus infected insect cells using […] as substrate incubated for 30 mins by fluorescence based analysis", "set-up": "species or system Insect cell"}}, "data": [{"smiles": "Cc1nnc2n1-c1ccccc1C(c1ccccc1)=N[C@H]2CC(=O)Nc1ccc(C(=O)NO)cc1", "values": [{"measurement": "MIC80", "setting": "[1]", "result": "> 64", "unit": "µg/mL"}, {"measurement": "MIC80", "setting": "[2]", "result": "> 64", "unit": "µg/mL"}, {"measurement": "IC50", "setting": "[3]", "result": "> 10", "unit": "µM"}, {"measurement": "IC50", "setting": "[4]", "result": 3.3, "unit": "µM"}, {"measurement": "IC50 at 48 h", "setting": "[5]", "result": 25, "unit": "µM"}, {"measurement": "IC50", "setting": "[6]", "result": 0.065, "unit": "µM"}, {"measurement": "MIC80", "setting": "[7]", "result": 4, "unit": "µg/mL"}, {"measurement": "fractional inhibitory concentration index (FICI)", "setting": "[8]", "result": 0.094}, {"measurement": "MIC80", "setting": "[9]", "result": 16, "unit": "µg/mL"}, {"measurement": "IC50", "setting": "[10]", "result": 1.7, "unit": "µM"}, {"measurement": "IC50", "setting": "[11]", "result": 0.062, "unit": "µM"}]}, {"smiles": "Cc1ccc(C2=N[C@@H](CC(=O)Nc3ccc(/C=C/C(=O)NO)cc3)c3nnc(C)n3-c3ccccc32)cc1", "values": [{"measurement": "MIC80", "setting": "[1]", "result": "> 64", "unit": "µg/mL"}, {"measurement": "MIC80", "setting": "[2]", "result": "> 64", "unit": "µg/mL"}, {"measurement": "IC50", "setting": "[3]", "result": 9, "unit": "µM"}, {"measurement": "IC50", "setting": "[4]", "result": 1.4, "unit": "µM"}, {"measurement": "IC50 at 48 h", "setting": "[5]", "result": 14, "unit": "µM"}, {"measurement": "IC50", "setting": "[6]", "result": 0.63, "unit": "µM"}, {"measurement": "MIC80", "setting": "[7]", "result": 4, "unit": "µg/mL"}, {"measurement": "fractional inhibitory concentration index (FICI)", "setting": "[8]", "result": 0.094}, {"measurement": "MIC80", "setting": "[9]", "result": 8, "unit": "µg/mL"}, {"measurement": "IC50", "setting": "[10]", "result": 4.2, "unit": "µM"}, {"measurement": "IC50", "setting": "[11]", "result": 0.18, "unit": "µM"}]}, {"smiles": "Cc1nnc2n1-c1ccccc1C(c1ccc(Cl)cc1)=N[C@H]2CC(=O)Nc1ccc(/C=C/C(=O)NO)cc1", "values": [{"measurement": "MIC80", "setting": "[1]", "result": "> 64", "unit": "µg/mL"}, {"measurement": "MIC80", "setting": "[2]", "result": "> 64", "unit": "µg/mL"}, {"measurement": "IC50", "setting": "[3]", "result": "> 10", "unit": "µM"}, {"measurement": "IC50", "setting": "[4]", "result": 1.5, "unit": "µM"}, {"measurement": "IC50 at 48 h", "setting": "[5]", "result": 8.1, "unit": "µM"}, {"measurement": "IC50", "setting": "[6]", "result": 0.42, "unit": "µM"}, {"measurement": "MIC80", "setting": "[7]", "result": 4, "unit": "µg/mL"}, {"measurement": "fractional inhibitory concentration index (FICI)", "setting": "[8]", "result": 0.066}, {"measurement": "MIC80", "setting": "[9]", "result": 8, "unit": "µg/mL"}, {"measurement": "IC50", "setting": "[10]", "result": 4.7, "unit": "µM"}, {"measurement": "IC50", "setting": "[11]", "result": 0.63, "unit": "µM"}]}, {"smiles": "Cc1nnc2n1-c1sc3c(c1C(c1ccc(Cl)cc1)=N[C@H]2CC(=O)Nc1ccc(CC(=O)NO)cc1)CCCC3", "values": [{"measurement": "MIC80", "setting": "[1]", "result": "> 64", "unit": "µg/mL"}, {"measurement": "MIC80", "setting": "[2]", "result": "> 64", "unit": "µg/mL"}, {"measurement": "IC50", "setting": "[3]", "result": 4, "unit": "µM"}, {"measurement": "IC50", "setting": "[4]", "result": "> 10", "unit": "µM"}, {"measurement": "IC50 at 48 h", "setting": "[5]", "result": 5.9, "unit": "µM"}, {"measurement": "IC50", "setting": "[6]", "result": 2.2, "unit": "µM"}, {"measurement": "MIC80", "setting": "[7]", "result": 4, "unit": "µg/mL"}, {"measurement": "fractional inhibitory concentration index (FICI)", "setting": "[8]", "result": 0.07}, {"measurement": "MIC80", "setting": "[9]", "result": 16, "unit": "µg/mL"}, {"measurement": "IC50", "setting": "[10]", "result": 1.1, "unit": "µM"}, {"measurement": "IC50", "setting": "[11]", "result": 1.4, "unit": "µM"}]}, {"smiles": "Cc1nnc2n1-c1ccc(Cl)cc1C(c1ccccc1Cl)=N[C@H]2CC(=O)NCc1ccc(C(=O)NO)cc1", "values": [{"measurement": "MIC80", "setting": "[1]", "result": "> 64", "unit": "µg/mL"}, {"measurement": "MIC80", "setting": "[2]", "result": "> 64", "unit": "µg/mL"}, {"measurement": "IC50", "setting": "[3]", "result": "> 10", "unit": "µM"}, {"measurement": "IC50", "setting": "[4]", "result": "> 10", "unit": "µM"}, {"measurement": "IC50 at 48 h", "setting": "[5]", "result": 48, "unit": "µM"}, {"measurement": "IC50", "setting": "[6]", "result": 3.4, "unit": "µM"}, {"measurement": "MIC80", "setting": "[7]", "result": 8, "unit": "µg/mL"}, {"measurement": "fractional inhibitory concentration index (FICI)", "setting": "[8]", "result": 0.16}, {"measurement": "MIC80", "setting": "[9]", "result": 16, "unit": "µg/mL"}, {"measurement": "IC50", "setting": "[10]", "result": "> 10", "unit": "µM"}, {"measurement": "IC50", "setting": "[11]", "result": 1.9, "unit": "µM"}]}, {"smiles": "Cc1nnc2n1-c1ccccc1C(c1ccc(Cl)cc1)=N[C@H]2CC(=O)Nc1ccc(CC(=O)NO)cc1", "values": [{"measurement": "MIC80", "setting": "[1]", "result": "> 64", "unit": "µg/mL"}, {"measurement": "MIC80", "setting": "[2]", "result": "> 64", "unit": "µg/mL"}, {"measurement": "IC50", "setting": "[3]", "result": "> 10", "unit": "µM"}, {"measurement": "IC50", "setting": "[4]", "result": "> 10", "unit": "µM"}, {"measurement": "IC50 at 48 h", "setting": "[5]", "result": 19, "unit": "µM"}, {"measurement": "IC50", "setting": "[6]", "result": 2.8, "unit": "µM"}, {"measurement": "MIC80", "setting": "[7]", "result": 32, "unit": "µg/mL"}, {"measurement": "fractional inhibitory concentration index (FICI)", "setting": "[8]", "result": 0.75}, {"measurement": "MIC80", "setting": "[9]", "result": 32, "unit": "µg/mL"}, {"measurement": "IC50", "setting": "[10]", "result": 1.1, "unit": "µM"}, {"measurement": "IC50", "setting": "[11]", "result": 2.4, "unit": "µM"}]}, {"smiles": "Cc1nnc2n1-c1ccccc1C(c1ccccc1)=N[C@H]2CC(=O)Nc1ccc(/C=C/C(=O)NO)cc1", "values": [{"measurement": "MIC80", "setting": "[1]", "result": "> 64", "unit": "µg/mL"}, {"measurement": "MIC80", "setting": "[2]", "result": "> 64", "unit": "µg/mL"}, {"measurement": "IC50", "setting": "[3]", "result": "> 10", "unit": "µM"}, {"measurement": "IC50", "setting": "[4]", "result": 1.9, "unit": "µM"}, {"measurement": "IC50 at 48 h", "setting": "[5]", "result": 14, "unit": "µM"}, {"measurement": "IC50", "setting": "[6]", "result": 0.016, "unit": "µM"}, {"measurement": "MIC80", "setting": "[7]", "result": 4, "unit": "µg/mL"}, {"measurement": "fractional inhibitory concentration index (FICI)", "setting": "[8]", "result": 0.094}, {"measurement": "MIC80", "setting": "[9]", "result": 8, "unit": "µg/mL"}, {"measurement": "IC50", "setting": "[10]", "result": 7, "unit": "µM"}, {"measurement": "IC50", "setting": "[11]", "result": 0.1, "unit": "µM"}]}, {"smiles": "Cc1nnc2n1-c1sc3c(c1C(c1ccc(Cl)cc1)=N[C@H]2CC(=O)Nc1ccc(/C=C/C(=O)NO)cc1)CCCC3", "values": [{"measurement": "MIC80", "setting": "[1]", "result": "> 64", "unit": "µg/mL"}, {"measurement": "MIC80", "setting": "[2]", "result": "> 64", "unit": "µg/mL"}, {"measurement": "IC50", "setting": "[3]", "result": "> 10", "unit": "µM"}, {"measurement": "IC50", "setting": "[4]", "result": 2.4, "unit": "µM"}, {"measurement": "IC50 at 48 h", "setting": "[5]", "result": 4.7, "unit": "µM"}, {"measurement": "IC50", "setting": "[6]", "result": 0.15, "unit": "µM"}, {"measurement": "MIC80", "setting": "[7]", "result": 4, "unit": "µg/mL"}, {"measurement": "fractional inhibitory concentration index (FICI)", "setting": "[8]", "result": 0.066}, {"measurement": "MIC80", "setting": "[9]", "result": 4, "unit": "µg/mL"}, {"measurement": "IC50", "setting": "[10]", "result": 5.1, "unit": "µM"}, {"measurement": "IC50", "setting": "[11]", "result": 0.79, "unit": "µM"}]}, {"smiles": "Cc1nnc2n1-c1ccc(Cl)cc1C(c1ccccc1Cl)=N[C@H]2CC(=O)Nc1ccc(CC(=O)NO)cc1", "values": [{"measurement": "MIC80", "setting": "[1]", "result": "> 64", "unit": "µg/mL"}, {"measurement": "MIC80", "setting": "[2]", "result": "> 64", "unit": "µg/mL"}, {"measurement": "IC50", "setting": "[3]", "result": "> 10", "unit": "µM"}, {"measurement": "IC50", "setting": "[4]", "result": 8, "unit": "µM"}, {"measurement": "IC50 at 48 h", "setting": "[5]", "result": 19, "unit": "µM"}, {"measurement": "IC50", "setting": "[6]", "result": 4.4, "unit": "µM"}, {"measurement": "MIC80", "setting": "[7]", "result": 8, "unit": "µg/mL"}, {"measurement": "fractional inhibitory concentration index (FICI)", "setting": "[8]", "result": 0.14}, {"measurement": "MIC80", "setting": "[9]", "result": 16, "unit": "µg/mL"}, {"measurement": "IC50", "setting": "[10]", "result": 9.7, "unit": "µM"}, {"measurement": "IC50", "setting": "[11]", "result": 1.1, "unit": "µM"}]}]}
